Legend:
[1] = molecular target: Mitogen-activated protein kinase kinase kinase kinase 2 (Homo sapiens) (UniProt Q12851); test: Inhibition of human GCK (2 to 812 residues) assessed as residual activity at 500 nM in presence of 33P-ATP by filter binding assay relative to control
[2] = molecular target: Protein kinase C zeta type (Homo sapiens) (UniProt Q05513); test: Inhibition of human PKCzeta (2 to 592 residues) assessed as residual activity at 500 nM in presence of 33P-ATP by filter binding assay relative to control
[3] = molecular target: Aurora kinase A (Homo sapiens) (UniProt O14965); test: Inhibition of human Aurora-A (2 to 403 residues) assessed as residual activity at 500 nM in presence of 33P-ATP by filter binding assay relative to control
[4] = molecular target: AMPK alpha1/beta2/gamma1 (Homo sapiens) (UniProt O43741+P54619+Q13131); test: Inhibition of human AMPKalpha1 (11 to 559 residues)/beta2 (1 to 272 residues)/gamma1 (1 to 331 residues) assessed as residual activity at 500 nM in presence of 33P-ATP by filter binding assay relative to control; type: protein-complex assay
[5] = molecular target: Serine/threonine-protein kinase ULK2 (Homo sapiens) (UniProt Q8IYT8); test: Inhibition of human ULK2 (1 to 1036 residues) assessed as residual activity at 500 nM in presence of 33P-ATP by filter binding assay relative to control
[6] = molecular target: Dual specificity protein kinase TTK (Homo sapiens) (UniProt P33981); test: Inhibition of human TTK (1 to 857 residues) assessed as residual activity at 500 nM in presence of 33P-ATP by filter binding assay relative to control
[7] = molecular target: MAP/microtubule affinity-regulating kinase 4 (Homo sapiens) (UniProt Q96L34); test: Inhibition of human MARK4 (2 to 752 residues) assessed as residual activity at 500 nM in presence of 33P-ATP by filter binding assay relative to control
[8] = molecular target: Dual specificity tyrosine-phosphorylation-regulated kinase 2 (Homo sapiens) (UniProt Q92630); test: Inhibition of human DYRK2 (3 to 528 residues) assessed as residual activity at 500 nM in presence of 33P-ATP by filter binding assay relative to control
[9] = molecular target: Tau-tubulin kinase 1 (Homo sapiens) (UniProt Q5TCY1); test: Inhibition of human TTBK1 (1 to 1321 residues) assessed as residual activity at 500 nM in presence of 33P-ATP by filter binding assay relative to control
[10] = molecular target: Serine/threonine-protein kinase Chk1 (Homo sapiens) (UniProt O14757); test: Inhibition of human CHK1 (1 to 476 residues) assessed as residual activity at 500 nM in presence of 33P-ATP by filter binding assay relative to control
[11] = molecular target: Mitogen-activated protein kinase 3 (Homo sapiens) (UniProt P27361); test: Inhibition of human ERK1 (2 to 379 residues) assessed as residual activity at 500 nM in presence of 33P-ATP by filter binding assay relative to control
[12] = tested on: Serine/threonine-protein kinase PAK 2 (Homo sapiens), Q13177 [T402E]; test: Inhibition of human PAK2 T402E mutant (1 to 524 residues) assessed as residual activity at 500 nM in presence of 33P-ATP by filter binding assay relative to control
[13] = molecular target: Mitogen-activated protein kinase 7 (Homo sapiens) (UniProt Q13164); test: Inhibition of human ERK5 (1 to 816 residues) assessed as residual activity at 500 nM in presence of 33P-ATP by filter binding assay relative to control
[14] = molecular target: MAP kinase-interacting serine/threonine-protein kinase 1 (Homo sapiens) (UniProt Q9BUB5); test: Inhibition of human MNK1 (2 to 424 residues) assessed as residual activity at 500 nM in presence of 33P-ATP by filter binding assay relative to control
[15] = molecular target: Ephrin type-B receptor 4 (Homo sapiens) (UniProt P54760); test: Inhibition of human EPHB4 (561 to 987 residues) assessed as residual activity at 500 nM in presence of 33P-ATP by filter binding assay relative to control
[16] = molecular target: Serine/threonine-protein kinase TAO1 (Homo sapiens) (UniProt Q7L7X3); test: Inhibition of human TAO1 (1 to 356 residues) assessed as residual activity at 500 nM in presence of 33P-ATP by filter binding assay relative to control
[17] = molecular target: Tyrosine-protein kinase ZAP-70 (Homo sapiens) (UniProt P43403); test: Inhibition of human ZAP70 (1 to 619 residues) assessed as residual activity at 500 nM in presence of 33P-ATP by filter binding assay relative to control
[18] = molecular target: Serine/threonine-protein kinase 33 (Homo sapiens) (UniProt Q9BYT3); test: Inhibition of human STK33 (1 to 514 residues) assessed as residual activity at 500 nM in presence of 33P-ATP by filter binding assay relative to control
[19] = molecular target: Insulin receptor-related protein (Homo sapiens) (UniProt P14616); test: Inhibition of human IRR (944 to 1236 residues) assessed as residual activity at 500 nM in presence of 33P-ATP by filter binding assay relative to control
[20] = molecular target: Fibroblast growth factor receptor 1 (Homo sapiens) (UniProt P11362); test: Inhibition of human FGFR1 (400 to 820 residues) assessed as residual activity at 500 nM in presence of 33P-ATP by filter binding assay relative to control
[21] = molecular target: Mitogen-activated protein kinase 9 (Homo sapiens) (UniProt P45984); test: Inhibition of human JNK2 (1 to 424 residues) assessed as residual activity at 500 nM in presence of 33P-ATP by filter binding assay relative to control
[22] = molecular target: Misshapen-like kinase 1 (Homo sapiens) (UniProt Q8N4C8); test: Inhibition of human MINK1 (1 to 320 residues) assessed as residual activity at 500 nM in presence of 33P-ATP by filter binding assay relative to control
TAK1/TAB1 (Homo sapiens) = TAK1/TAB1 (Homo sapiens) (UniProt Q15750+O43318); test: Inhibition of human TAK1 (1 to 303 residues)/TAB1 (437 to 504 residues) assessed as residual activity at 500 nM in presence of 33P-ATP by filter binding assay relative to control; type: protein-complex assay
[23] = molecular target: Mitogen-activated protein kinase 14 (Homo sapiens) (UniProt Q16539); test: Inhibition of human p38alpha (1 to 360 residues) at 500 nM in presence of 33P-ATP by filter binding assay relative to control
[24] = tested on: TGF-beta receptor type-1 (Homo sapiens), P36897 [T204D]; test: Inhibition of human TGFbetaR1 T204D mutant (200 to 501 residues) at 500 nM in presence of 33P-ATP by filter binding assay relative to control

Chain of MAP kinase-interacting serine/threonine-protein kinase 1 (Homo sapiens) (Q9BUB5 whole entry, looked up, the tested form may be a part): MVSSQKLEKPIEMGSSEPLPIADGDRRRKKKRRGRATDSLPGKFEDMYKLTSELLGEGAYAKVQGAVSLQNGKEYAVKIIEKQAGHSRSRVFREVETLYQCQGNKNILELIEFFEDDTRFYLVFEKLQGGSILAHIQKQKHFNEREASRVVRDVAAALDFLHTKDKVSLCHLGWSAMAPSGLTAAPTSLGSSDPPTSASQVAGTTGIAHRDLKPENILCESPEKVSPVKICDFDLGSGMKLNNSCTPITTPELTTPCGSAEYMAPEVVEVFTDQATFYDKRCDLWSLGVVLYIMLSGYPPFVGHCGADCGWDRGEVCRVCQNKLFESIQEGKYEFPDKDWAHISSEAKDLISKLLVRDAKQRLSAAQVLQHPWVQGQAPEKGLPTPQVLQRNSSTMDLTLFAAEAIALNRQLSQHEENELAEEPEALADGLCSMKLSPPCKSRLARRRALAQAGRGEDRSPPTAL
Chain of Mitogen-activated protein kinase 14 (Homo sapiens) (Q16539 whole entry, the tested form may be a part): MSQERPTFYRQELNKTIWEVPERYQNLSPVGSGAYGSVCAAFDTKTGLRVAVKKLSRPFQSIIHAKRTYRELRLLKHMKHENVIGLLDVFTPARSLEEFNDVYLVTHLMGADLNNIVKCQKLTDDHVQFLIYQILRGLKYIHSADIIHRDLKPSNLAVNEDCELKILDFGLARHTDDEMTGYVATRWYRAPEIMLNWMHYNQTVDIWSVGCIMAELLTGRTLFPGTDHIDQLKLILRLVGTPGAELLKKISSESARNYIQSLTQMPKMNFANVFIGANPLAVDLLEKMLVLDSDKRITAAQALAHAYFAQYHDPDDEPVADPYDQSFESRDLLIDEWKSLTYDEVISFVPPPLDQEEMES
Chain of Misshapen-like kinase 1 (Homo sapiens) (Q8N4C8 whole entry, looked up, the tested form may be a part): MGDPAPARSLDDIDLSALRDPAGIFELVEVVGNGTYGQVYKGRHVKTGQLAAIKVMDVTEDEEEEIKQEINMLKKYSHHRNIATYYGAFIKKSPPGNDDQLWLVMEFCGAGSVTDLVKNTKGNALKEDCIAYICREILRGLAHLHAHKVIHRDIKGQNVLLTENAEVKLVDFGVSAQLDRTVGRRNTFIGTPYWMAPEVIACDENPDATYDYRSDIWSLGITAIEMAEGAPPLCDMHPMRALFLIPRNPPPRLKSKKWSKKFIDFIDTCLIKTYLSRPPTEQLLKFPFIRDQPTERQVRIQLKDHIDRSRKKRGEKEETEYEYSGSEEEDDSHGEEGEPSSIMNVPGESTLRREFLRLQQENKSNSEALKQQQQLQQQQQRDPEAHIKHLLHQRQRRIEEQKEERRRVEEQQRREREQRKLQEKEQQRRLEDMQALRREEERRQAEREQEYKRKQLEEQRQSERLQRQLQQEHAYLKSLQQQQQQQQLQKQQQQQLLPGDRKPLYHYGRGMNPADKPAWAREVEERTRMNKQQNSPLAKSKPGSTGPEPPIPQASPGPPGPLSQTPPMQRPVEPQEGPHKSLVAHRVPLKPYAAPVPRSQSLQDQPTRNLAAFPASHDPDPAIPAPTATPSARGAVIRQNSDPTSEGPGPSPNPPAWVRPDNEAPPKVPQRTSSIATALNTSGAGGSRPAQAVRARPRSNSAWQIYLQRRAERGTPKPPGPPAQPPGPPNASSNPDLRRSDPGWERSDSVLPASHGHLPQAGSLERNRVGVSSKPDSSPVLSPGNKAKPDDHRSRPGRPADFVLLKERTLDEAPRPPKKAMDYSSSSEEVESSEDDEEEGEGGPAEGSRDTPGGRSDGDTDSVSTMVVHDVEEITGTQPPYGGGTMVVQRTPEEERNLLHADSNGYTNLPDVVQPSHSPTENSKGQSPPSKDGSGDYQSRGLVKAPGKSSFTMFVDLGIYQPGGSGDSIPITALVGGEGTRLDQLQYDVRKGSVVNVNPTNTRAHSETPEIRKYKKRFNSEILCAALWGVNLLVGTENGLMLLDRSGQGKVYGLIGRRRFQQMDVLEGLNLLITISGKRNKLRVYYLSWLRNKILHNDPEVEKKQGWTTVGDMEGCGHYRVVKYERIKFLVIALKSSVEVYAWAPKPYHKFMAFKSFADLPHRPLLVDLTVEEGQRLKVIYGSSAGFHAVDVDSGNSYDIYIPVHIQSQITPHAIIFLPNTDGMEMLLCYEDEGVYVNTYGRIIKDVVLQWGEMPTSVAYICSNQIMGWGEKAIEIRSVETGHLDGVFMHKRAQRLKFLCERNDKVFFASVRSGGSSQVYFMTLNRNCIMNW
Chain of Insulin receptor-related protein (Homo sapiens) (P14616 27-742 limits assumed): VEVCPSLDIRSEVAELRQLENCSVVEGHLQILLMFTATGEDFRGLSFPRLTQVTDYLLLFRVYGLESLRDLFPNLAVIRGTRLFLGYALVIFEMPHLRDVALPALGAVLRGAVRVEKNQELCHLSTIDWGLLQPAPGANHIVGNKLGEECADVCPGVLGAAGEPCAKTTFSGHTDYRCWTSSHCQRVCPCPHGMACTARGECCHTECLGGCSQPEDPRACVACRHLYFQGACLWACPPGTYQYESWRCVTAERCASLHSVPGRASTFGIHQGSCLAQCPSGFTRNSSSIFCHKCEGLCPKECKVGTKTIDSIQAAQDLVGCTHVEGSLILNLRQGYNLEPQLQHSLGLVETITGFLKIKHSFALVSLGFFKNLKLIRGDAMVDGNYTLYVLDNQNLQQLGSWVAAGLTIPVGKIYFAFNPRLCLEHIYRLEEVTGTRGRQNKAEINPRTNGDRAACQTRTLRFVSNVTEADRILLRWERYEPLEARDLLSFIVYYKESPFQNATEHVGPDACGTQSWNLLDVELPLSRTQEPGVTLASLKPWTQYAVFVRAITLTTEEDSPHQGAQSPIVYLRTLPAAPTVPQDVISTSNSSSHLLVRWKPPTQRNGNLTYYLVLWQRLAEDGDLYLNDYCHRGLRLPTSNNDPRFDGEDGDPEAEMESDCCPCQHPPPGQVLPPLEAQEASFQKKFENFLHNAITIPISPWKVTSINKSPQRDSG
Chain of Insulin receptor-related protein (Homo sapiens) (P14616 747-1297 limits assumed): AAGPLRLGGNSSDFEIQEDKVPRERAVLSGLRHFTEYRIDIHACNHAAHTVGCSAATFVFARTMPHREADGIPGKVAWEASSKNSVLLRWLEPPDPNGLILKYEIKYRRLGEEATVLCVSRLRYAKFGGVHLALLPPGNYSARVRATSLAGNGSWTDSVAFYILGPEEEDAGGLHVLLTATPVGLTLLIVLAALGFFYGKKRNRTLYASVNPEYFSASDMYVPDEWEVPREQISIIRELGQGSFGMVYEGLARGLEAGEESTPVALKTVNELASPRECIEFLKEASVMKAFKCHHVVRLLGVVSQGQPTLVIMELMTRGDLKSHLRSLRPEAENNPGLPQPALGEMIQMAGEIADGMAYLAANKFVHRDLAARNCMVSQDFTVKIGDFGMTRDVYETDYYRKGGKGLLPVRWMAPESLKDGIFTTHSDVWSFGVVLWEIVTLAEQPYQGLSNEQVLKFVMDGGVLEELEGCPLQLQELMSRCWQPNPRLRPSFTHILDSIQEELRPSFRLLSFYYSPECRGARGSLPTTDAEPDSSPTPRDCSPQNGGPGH
Chain of Serine/threonine-protein kinase PAK 2 (Homo sapiens), Q13177 [T402E] (Q13177 whole entry T402E, the tested form may be a part): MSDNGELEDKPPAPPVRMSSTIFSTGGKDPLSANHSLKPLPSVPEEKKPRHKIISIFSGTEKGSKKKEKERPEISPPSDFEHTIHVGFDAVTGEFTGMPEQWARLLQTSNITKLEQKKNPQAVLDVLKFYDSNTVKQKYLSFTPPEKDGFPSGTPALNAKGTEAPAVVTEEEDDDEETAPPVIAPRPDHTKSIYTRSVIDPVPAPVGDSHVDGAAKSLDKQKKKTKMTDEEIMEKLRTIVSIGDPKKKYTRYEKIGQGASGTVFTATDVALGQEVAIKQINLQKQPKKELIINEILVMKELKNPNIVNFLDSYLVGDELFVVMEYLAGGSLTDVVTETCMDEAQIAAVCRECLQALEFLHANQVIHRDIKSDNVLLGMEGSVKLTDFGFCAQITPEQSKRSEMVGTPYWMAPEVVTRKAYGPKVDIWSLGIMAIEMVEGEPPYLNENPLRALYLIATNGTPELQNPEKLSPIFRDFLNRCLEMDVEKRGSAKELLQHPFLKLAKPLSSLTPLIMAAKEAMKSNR
Chain of Mitogen-activated protein kinase 3 (Homo sapiens) (P27361 whole entry, the tested form may be a part): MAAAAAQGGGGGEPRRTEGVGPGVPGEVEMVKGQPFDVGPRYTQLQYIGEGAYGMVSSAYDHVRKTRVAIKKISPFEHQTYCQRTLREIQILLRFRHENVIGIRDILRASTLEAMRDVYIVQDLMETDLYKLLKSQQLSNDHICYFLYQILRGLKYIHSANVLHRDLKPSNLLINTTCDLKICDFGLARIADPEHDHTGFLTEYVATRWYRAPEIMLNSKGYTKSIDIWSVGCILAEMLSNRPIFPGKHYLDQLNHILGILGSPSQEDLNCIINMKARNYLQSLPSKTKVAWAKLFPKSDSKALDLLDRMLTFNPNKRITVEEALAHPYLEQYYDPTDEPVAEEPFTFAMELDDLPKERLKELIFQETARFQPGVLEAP
Chain of Protein kinase C zeta type (Homo sapiens) (Q05513 whole entry, the tested form may be a part): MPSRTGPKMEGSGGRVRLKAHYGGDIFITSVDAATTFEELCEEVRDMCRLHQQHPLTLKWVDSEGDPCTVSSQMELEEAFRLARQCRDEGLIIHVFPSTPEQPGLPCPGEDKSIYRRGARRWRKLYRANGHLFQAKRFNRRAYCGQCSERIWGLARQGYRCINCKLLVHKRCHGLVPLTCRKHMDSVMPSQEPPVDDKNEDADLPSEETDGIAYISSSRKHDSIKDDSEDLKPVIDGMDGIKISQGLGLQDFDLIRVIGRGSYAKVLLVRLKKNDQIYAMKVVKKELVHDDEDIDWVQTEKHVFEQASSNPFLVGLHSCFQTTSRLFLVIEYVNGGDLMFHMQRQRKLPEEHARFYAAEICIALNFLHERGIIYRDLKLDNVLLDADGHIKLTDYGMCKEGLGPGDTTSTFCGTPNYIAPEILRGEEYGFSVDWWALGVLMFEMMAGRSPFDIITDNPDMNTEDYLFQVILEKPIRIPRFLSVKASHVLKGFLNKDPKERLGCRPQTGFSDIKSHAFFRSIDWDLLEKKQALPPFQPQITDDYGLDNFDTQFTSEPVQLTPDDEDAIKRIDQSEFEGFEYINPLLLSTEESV

Activity [1]: 133%
Activity [2]: 123%
Activity [3]: 120%
Activity [4]: 120%
Activity [5]: 118%
Activity [6]: 117%
Activity [7]: 116%
Activity [8]: 116%
Activity [9]: 112%
Activity [10]: 109%
Activity [11]: 106%
Activity [12]: 103%
Activity [13]: 100%
Activity [14]: 99%
Activity [15]: 99%
Activity [16]: 99%
Activity [17]: 97%
Activity [18]: 97%
Activity [19]: 94%
Activity [20]: 85%
Activity [21]: 79%
Activity [22]: 74%
Activity (TAK1/TAB1 (Homo sapiens)): 40%
inhibition [23]: 91%
inhibition [24]: 86%
SMILES: Cc1cccc(-c2nc(N)sc2-c2ccc3ncccc3n2)c1

— ChEMBL document CHEMBL4177526, “Discovery and structure activity relationship of the first potent cryptosporidium FIKK kinase inhibitor” (Bioorg Med Chem, 2017)
